This is an account of results in patent publication US12582650B2, “IRAK4 kinase inhibitor and preparation method therefor” (ZHUHAI YUFAN BIOTECHNOLOGIES CO., LTD, priority 2019, dated 2026).

pIC50: −log10 of the molar value. A value given as a limit tells only on which side of the number the result lay.

In the assay the target is T1, IRAK4 (Homo sapiens, UniProt Q9NWZ3).
T1 construct: purchased Carna 09-145
T1 sequence (Q9NWZ3 1-460): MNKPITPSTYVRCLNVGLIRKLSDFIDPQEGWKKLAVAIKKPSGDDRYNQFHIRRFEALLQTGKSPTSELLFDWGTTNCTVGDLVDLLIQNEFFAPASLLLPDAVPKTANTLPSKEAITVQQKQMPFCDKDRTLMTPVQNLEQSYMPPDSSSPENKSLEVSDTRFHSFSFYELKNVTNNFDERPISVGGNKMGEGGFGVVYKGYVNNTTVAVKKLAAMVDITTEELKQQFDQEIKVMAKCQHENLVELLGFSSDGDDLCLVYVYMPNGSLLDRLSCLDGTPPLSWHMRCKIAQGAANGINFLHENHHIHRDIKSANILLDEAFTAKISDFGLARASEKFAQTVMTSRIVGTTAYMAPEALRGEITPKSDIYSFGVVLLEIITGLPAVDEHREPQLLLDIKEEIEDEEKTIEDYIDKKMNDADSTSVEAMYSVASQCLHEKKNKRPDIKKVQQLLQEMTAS
Kind of assay: Enzymatic experiment for IRAK4 kinase inhibitor (HTRF KinEASE-STK, phosphorylation of STK1). Type of assay: biochemical. The settings on record: 6 nM IRAK4, 0.4 uM STK1, 80 uM ATP, 37° C. for 90 min, read-out: Relative IC50. The procedure: Experimental materials: IRAK4 recombinant human […], purchased from Carna (Cat #09-145); ATP, purchased from Sigma (Cat #A7699-5G); Compound 26, purchased from Merck Millipore (Cat #531237); and HTRF KinEASE-STK Si kit, purchased from Cisbio (Cat #62ST1PEC).
Experimental method: Phosphorylation of STK1 can be detected using an HTRF assay kit. The experimental reaction was carried out in a 384-well plate (Greiner, Cat #784075) with a total reaction system of 20 uL. The reaction system mainly comprised 1× kinase buffer, […], […], 0.4 uM STK1 and 80 uM ATP. The target product prepared in Example 1 was serially diluted with DMSO at 10 concentration points, and transferred to an experimental assay plate at 100 nL. The reaction was started after 6 nM IRAK4 was added and stopped by adding a detection reagent (0.25×STK Antibody-Cryptate, 25 nM Streptavidin-XL665) after being in process at 37° C. for 90 min. After standing at room temperature for 60 min, an FRET signal was read on a Spark 10M or envision plate reader. (HTRF 665/615=signal value at 665 nm/signal value at 615 nm).
Data analysis: signal ratio (665/615) was converted to a percent rejection. Inhibition %=(max−sample)/(max−min)×100. “min” represents a ratio of signal values (665/615) for control well without enzyme, and “max” represents a ratio of signal values (665/615) for control well with […]. […] values for compounds were calculated by XLFit in the Excel. Y=Bottom+(Top−Bottom)/(1+(IC50/X)^HillSlope) Equation: […]

Take `CC1CC(c2cn3c(cnc4[nH]cc(C5CCOCC5)c43)n2)CCN1` (centres unmarked): the pIC50 is 6.00 to 7.00. To `NC1CCC(c2nc3c(cnc4[nH]cc(C5CCOCC5)c43)[nH]2)CC1` (centres unmarked) [drawing 312] belongs greater than 7.00. Then `c1[nH]c2ncc3nc(C4CCCCC4)cn3c2c1C1CCOCC1`, with greater than 7.00; and `CN1CCC(c2cn3c(cnc4[nH]cc(C5CCOCC5)c43)n2)CC1`, with 6.00 to 7.00.

Turning to `c1[nH]c2ncc3nc(C4CCC(N5CCOCC5)CC4)cn3c2c1C1CCOCC1` (centres unmarked), the pIC50 is 6.00 to 7.00. Regarding `CN1CCC(c2cn3c(cnc4[nH]cc(C5CCOCC5)c43)n2)C1` (centres unmarked), the pIC50 was 6.00 to 7.00. To `c1[nH]c2ncc3nc(C4CCC5(CC4)CNC5)cn3c2c1C1CCOCC1` belongs greater than 7.00. Consider `CC1CNCCC1c1cn2c(cnc3[nH]cc(C4CCOCC4)c32)n1` (centres unmarked), for which the pIC50 is greater than 7.00. Take `CN(C)C1CCC(c2cn3c(cnc4[nH]cc(C5CCOCC5)c43)n2)CC1` (centres unmarked): the pIC50 was greater than 7.00. As to `CC(=O)N1CCC(c2cn3c(cnc4[nH]cc(C5CCOCC5)c43)n2)CC1`, the pIC50 was less than 6.00.

For the compound `NC1CCC(c2nc3c(cnc4[nH]cc(C5CCOCC5)c43)[nH]2)CC1` (centres unmarked) [drawing 311], the pIC50 is greater than 7.00. For the compound `CCN1CCC(c2cn3c(cnc4[nH]cc(C5CCOCC5)c43)n2)CC1`, the negative-log IC50 (pIC50) is 6.00 to 7.00. Then `c1[nH]c2ncc3nc(C4CCOCC4)cn3c2c1C1CCOCC1`, with 6.00 to 7.00; and `NC1CCC(c2cn3c(cnc4[nH]cc(C5CCOCC5)c43)n2)CC1` (centres unmarked), with greater than 7.00; and `c1[nH]c2ncc3[nH]c(C4CCCCC4)nc3c2c1C1CCOCC1`, with 6.00 to 7.00. Take `CN1CCC(c2cn3c(cnc4[nH]cc(C5CCC(C(N)=O)CC5)c43)n2)CC1` (centres unmarked): the negative-log IC50 (pIC50) was less than 6.00.

With `c1[nH]c2ncc3nc(C4CCN(C5COC5)CC4)cn3c2c1C1CCOCC1`, the negative logarithm of the IC50 (pIC50) is less than 6.00. With `Cn1c(C2CCCCC2)nc2c3c(C4CCOCC4)c[nH]c3ncc21`, the pIC50 is 6.00 to 7.00. To `c1[nH]c2ncc3nc(C4CCNCC4)cn3c2c1C1CCOCC1` belongs greater than 7.00; to `c1[nH]c2ncc3nc(C4CCCNC4)cn3c2c1C1CCOCC1` (centres unmarked), greater than 7.00.
